Data on one molecule can be found in ChEMBL document CHEMBL5661967, “Antitumor activity of HKI-272, an orally active, irreversible inhibitor of the HER-2 tyrosine kinase” (Cancer Res, 2004).

In assay [1] the test system is BT-474. As to the kind of experiment: Cell cycle arrest in human BT-474 cells assessed as increase in accumulation of cells at sub-G1 phase at >2 nM measured after 12 to 16 hrs by propidium iodide staining based flow cytometry. It counts as functional. Particulars: time 12-16 hrs. Background: In flow cytometry, cells or beads pass a laser one at a time.
Assay [2] has as its system A-431. The assay is described as follows: Antiproliferative activity against human A-431 cells measured after 2 days by sulforhodamine B assay. Particulars: A-431, 48 h. The assay is classed as functional, cell-based.
The subject of assay [3] is MX1. As to the kind of experiment: Antitumor activity against human MX1 cells xenografted in athymic nude mouse assessed as tumor growth inhibition. The assay is classed as functional, cell-based. Background: In xenograft studies the graft and the host belong to different species.
The target of assay [4] is MAP kinase-activated protein kinase 2 (Homo sapiens, UniProt P49137). The assay is described as follows: Inhibition of recombinant MK2 (unknown origin) using peptide as substrate.
MAP kinase-activated protein kinase 2, sequence (P49137 whole entry): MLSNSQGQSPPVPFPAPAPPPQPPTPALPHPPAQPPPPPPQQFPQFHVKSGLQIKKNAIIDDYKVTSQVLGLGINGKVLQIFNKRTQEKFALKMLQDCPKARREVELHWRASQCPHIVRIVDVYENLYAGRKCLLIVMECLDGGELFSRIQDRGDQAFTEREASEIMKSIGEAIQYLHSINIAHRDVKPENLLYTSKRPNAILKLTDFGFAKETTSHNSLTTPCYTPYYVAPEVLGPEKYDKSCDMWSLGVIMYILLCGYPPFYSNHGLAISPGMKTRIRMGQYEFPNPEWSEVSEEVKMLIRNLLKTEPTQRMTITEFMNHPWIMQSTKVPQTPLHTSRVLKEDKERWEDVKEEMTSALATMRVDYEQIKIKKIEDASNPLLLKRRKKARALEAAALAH
In assay [5] the test system is A-431. The assay is described as follows: Antitumor activity against human A-431 cells xenografted in athymic nude mouse assessed as tumor growth inhibition at 5 mg/kg, po administered daily for 10 days via gavage and measured on day 15 relative to control. The assay is classed as functional. Particulars: A-431, 360 h, time 15 day, read-out: TGI.
For assay [6], the target named is Cyclin-dependent kinase 4/cyclin D1 (Homo sapiens, UniProt P11802). As to the kind of experiment: Inhibition of recombinant CDK4/cyclin D1 (unknown origin) using protein as substrate. The assay is classed as protein-complex assay.
Cyclin-dependent kinase 4/cyclin D1, sequence (P11802 whole entry): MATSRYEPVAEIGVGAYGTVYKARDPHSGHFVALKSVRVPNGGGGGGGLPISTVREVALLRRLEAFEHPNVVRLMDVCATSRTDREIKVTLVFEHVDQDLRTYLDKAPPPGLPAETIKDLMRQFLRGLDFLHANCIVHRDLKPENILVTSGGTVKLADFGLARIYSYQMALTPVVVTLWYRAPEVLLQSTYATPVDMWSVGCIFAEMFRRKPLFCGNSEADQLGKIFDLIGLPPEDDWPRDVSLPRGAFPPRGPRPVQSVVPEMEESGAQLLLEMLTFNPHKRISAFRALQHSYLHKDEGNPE
Cyclin-dependent kinase 4/cyclin D1, sequence (P24385 whole entry, further chain): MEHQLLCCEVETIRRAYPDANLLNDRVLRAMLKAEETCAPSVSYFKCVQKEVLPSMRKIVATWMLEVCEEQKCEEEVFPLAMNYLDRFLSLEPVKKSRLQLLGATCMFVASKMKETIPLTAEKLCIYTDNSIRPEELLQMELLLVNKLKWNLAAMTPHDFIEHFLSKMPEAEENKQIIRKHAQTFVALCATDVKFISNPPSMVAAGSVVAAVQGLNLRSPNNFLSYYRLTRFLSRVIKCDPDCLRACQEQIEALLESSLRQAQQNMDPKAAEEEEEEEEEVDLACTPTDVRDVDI
Assay [7] has as its system BT-474. As to the kind of experiment: Antitumor activity against human BT-474 cells xenografted in athymic nude mouse assessed as tumor growth inhibition at 5 mg/kg, po administered daily for 20 days via gavage and measured on day 21 relative to control. The assay is classed as functional. Particulars: BT-474, 504 h, time 21 day, read-out: TGI.
For assay [8], the system named is BT-474. The assay is described as follows: Cell cycle arrest in human BT-474 cells assessed as accumulation of cells at G0-G1 phase at 0.4 nM measured after 12 to 16 hrs by propidium iodide staining based flow cytometry (reference value: 61%). The conditions noted are these: time 12-16 hrs. It counts as functional.
Assay [9] deals with NIH3T3. As to the kind of experiment: Antitumor activity against mouse 3T3 cells transfected with HER-2 oncogene implanted in athymic nude mouse assessed as tumor growth inhibition at 40 mg/kg, po administered daily for 10 days via gavage and measured on day 14 relative to control. The assay is classed as functional. The conditions noted are these: NIH3T3, 336 h, time 14 day, read-out: TGI.

Assay [10] deals with BT-474. As to the kind of experiment: Cell cycle arrest in human BT-474 cells assessed as accumulation of cells at G2/M phase at 1 nM measured after 12 to 16 hrs by propidium iodide staining based flow cytometry (reference value: 11%). The assay is classed as functional. The conditions noted are these: time 12-16 hrs.
For assay [11], the target named is Receptor tyrosine-protein kinase erbB-2 (Homo sapiens, UniProt P04626). The assay is described as follows: Inhibition of [14C]HKI-272 binding to recombinant N-terminal His6-tagged HER2 cytoplasmic domain (676 to 1255 residues)(unknown origin) expressed in baculovirus infected Sf9 insect cells at 5 uM measured after 15 mins by fluorography.
Receptor tyrosine-protein kinase erbB-2, sequence (P04626 whole entry, the tested form may be a part): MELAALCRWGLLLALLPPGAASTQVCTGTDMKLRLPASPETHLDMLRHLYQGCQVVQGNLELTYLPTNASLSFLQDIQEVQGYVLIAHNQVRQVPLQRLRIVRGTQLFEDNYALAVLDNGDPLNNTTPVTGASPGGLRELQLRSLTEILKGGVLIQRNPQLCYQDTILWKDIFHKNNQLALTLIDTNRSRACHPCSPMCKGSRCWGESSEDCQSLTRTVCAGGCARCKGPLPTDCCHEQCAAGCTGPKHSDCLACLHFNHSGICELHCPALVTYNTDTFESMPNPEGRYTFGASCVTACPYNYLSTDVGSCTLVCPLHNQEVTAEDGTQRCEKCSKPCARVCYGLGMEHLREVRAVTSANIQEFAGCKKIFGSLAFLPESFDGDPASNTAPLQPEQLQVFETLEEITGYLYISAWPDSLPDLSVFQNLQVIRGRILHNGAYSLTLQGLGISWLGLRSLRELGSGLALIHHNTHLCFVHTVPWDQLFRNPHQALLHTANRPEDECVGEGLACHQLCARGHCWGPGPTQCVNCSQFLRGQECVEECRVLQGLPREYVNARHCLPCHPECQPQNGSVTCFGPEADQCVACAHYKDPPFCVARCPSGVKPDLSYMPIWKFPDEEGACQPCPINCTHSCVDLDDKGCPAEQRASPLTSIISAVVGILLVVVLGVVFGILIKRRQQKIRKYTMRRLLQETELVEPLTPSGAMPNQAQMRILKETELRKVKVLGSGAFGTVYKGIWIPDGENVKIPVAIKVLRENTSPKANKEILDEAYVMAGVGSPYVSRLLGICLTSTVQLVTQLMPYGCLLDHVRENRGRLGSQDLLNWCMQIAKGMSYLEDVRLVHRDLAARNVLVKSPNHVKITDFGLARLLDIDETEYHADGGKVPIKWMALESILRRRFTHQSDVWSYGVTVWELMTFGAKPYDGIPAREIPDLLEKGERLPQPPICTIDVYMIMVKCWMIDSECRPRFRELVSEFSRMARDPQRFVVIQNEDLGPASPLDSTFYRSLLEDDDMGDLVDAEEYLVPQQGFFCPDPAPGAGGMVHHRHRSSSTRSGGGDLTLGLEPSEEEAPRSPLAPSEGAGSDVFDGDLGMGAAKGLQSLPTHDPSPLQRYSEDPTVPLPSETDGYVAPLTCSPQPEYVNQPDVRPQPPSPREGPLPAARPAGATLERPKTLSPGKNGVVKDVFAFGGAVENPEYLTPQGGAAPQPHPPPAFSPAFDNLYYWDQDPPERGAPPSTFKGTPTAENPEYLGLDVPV
Assay [12] concerns BT-474. The assay is described as follows: Cell cycle arrest in human BT-474 cells assessed as reduction in accumulation of cells at S phase measured after 12 to 16 hrs by BrdUrd uptake assay. It counts as functional, cell-based.
The test system of assay [13] is SK-OV-3. The assay is described as follows: Antitumor activity against human SK-OV-3 cells xenografted in athymic nude mouse assessed as tumor growth inhibition at 5 mg/kg, po administered daily for 20 days via gavage and measured on day 21 relative to control. It counts as functional. The conditions noted are these: SK-OV-3, 504 h, time 21 day, read-out: TGI.
The target of assay [14] is Cyclin-dependent kinase 1/cyclin B1 (Homo sapiens, UniProt P06493). The assay is described as follows: Inhibition of recombinant CDK1/cyclin B1 (unknown origin) using protein as substrate. The assay is classed as protein-complex assay.
Cyclin-dependent kinase 1/cyclin B1, sequence (P06493 whole entry): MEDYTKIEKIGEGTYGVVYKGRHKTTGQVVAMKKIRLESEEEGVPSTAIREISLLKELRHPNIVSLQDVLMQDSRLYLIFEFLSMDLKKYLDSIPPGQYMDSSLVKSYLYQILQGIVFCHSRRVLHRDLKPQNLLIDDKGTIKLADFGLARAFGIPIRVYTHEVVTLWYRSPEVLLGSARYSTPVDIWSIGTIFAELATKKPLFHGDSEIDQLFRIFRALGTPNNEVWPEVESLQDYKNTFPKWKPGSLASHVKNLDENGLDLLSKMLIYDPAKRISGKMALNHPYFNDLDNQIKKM
Cyclin-dependent kinase 1/cyclin B1, sequence (P14635 whole entry, further chain): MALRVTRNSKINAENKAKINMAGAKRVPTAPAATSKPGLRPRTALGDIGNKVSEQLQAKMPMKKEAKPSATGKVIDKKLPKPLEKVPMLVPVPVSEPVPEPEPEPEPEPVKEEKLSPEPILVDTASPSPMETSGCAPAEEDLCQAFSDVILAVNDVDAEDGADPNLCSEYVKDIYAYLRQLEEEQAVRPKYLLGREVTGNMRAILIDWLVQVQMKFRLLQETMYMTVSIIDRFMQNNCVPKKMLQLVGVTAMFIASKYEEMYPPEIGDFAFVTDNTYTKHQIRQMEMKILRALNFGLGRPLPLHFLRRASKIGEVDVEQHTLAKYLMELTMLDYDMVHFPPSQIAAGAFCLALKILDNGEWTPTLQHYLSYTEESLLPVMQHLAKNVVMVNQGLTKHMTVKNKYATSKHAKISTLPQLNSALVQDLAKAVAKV
Assay [15] deals with BT-474. The assay is described as follows: Cell cycle arrest in human BT-474 cells assessed as accumulation of cells at Sub-G1 phase at 0.4 nM measured after 12 to 16 hrs by propidium iodide staining based flow cytometry (reference value: 8%). Particulars: time 12-16 hrs. The assay is classed as functional.
The subject of assay [16] is BT-474. As to the kind of experiment: Cell cycle arrest in human BT-474 cells assessed as accumulation of cells at G0-G1 phase at 1 nM measured after 12 to 16 hrs by propidium iodide staining based flow cytometry (reference value: 61%). The assay is classed as functional. The conditions noted are these: time 12-16 hrs.

The source made the active and inactive calls. The calls are words filed in the database; no cut-off is given here.

`COc1cc2ncc(C#N)c(Nc3ccc(OCc4ccccn4)c(Cl)c3)c2cc1NC(=O)/C=C/CN(C)C`: the result in [1] was Active. For the same molecule, the IC50 in [2] was 81 nM; in assay [4], more than 45000 nM; in assay [6] it was more than 50000 nM; in assay [12] it was 2 nM; in [14], more than 18000 nM. Further, the TGI entry in assay [3] is “inactive”. In addition, the inhibition in vivo at 5 mg/kg worked out at 32% in [5], 70% in assay [7] and 31% in assay [13]. For the same molecule, the Activity in [8] is listed as 65%; in assay [10], 14%; in assay [15], 11%; in assay [16], 69%. The inhibition in vivo at 40 mg/kg in assay [9] was found to be 98%. Moreover, the inhibition result in assay [11] was “Active”.

Broadly, the IC50 is the concentration needed to halve the response being measured.
